# According to patent US11225642B2, “Method for producing renal progenitor cells” (KYOTO UNIVERSITY, priority 2013, dated 2022):
# System: OSR1-GFP & SIX2-tdTomato reporter human iPS cell line (4A6C3-10)
# Experiment: SIX2-positive cell induction method 4, OSR1+SIX2+ cell rate by flow cytometer
# Assay type: cell-based
# Experimental: 4A6C3-10 was cultured at 37° C. in a 2% to 5% CO2 atmosphere to become 70% to 80% confluent on 10-cm dishes containing a primate ES medium (ReproCELL) supplemented with 500 U/ml penicillin/streptomycin (Invitrogen) and 5 ng/ml recombinant human basic fibroblast growth factor (bFGF, Wako) with the use of ICR-mouse-embryo (fetus 12.5 days old)-derived mouse embryonic fibroblasts (MEF) or SNL feeder cells (McMahon, A. P. and Bradley, A. (1990) Cell 62; 1073-1085) (these cells being previously treated with 15.5 μg/ml mitomycin (Kyowa Hakko Kirin Co., Ltd.) for 2 to 3 hours and seeded at a density of 2×10^5 cells/6-cm dish) as feeder cells. The 10-cm plates containing the cells were rinsed with PBS and treated with a CTK solution (PBS containing 0.25% Trypsin (Invitrogen), 0.1% Collagenase IV (Invitrogen), 20% KnockOut SR (KSR, Invitrogen), and 1 mM CaCl2) at 37° C. for 4 minutes. The CTK solution was removed by rinsing with PBS. Then, the medium was exchanged with DMEM/F12+Glutamax (Invitrogen) containing 0.1 mM MEM NEAA (Invitrogen), 1000 U/ml penicillin/streptomycin, 0.55 mM 2-mercaptoethanol (Invitrogen), and 20% KSR. Subsequently, the cells were scraped using a cell scraper and seeded on 6-cm plates coated with 0.2% gelatin to remove feeder cells. One hour later, the cells were washed with DMEM/F12+Glutamax [stage-1 medium] containing 500 U/ml penicillin/streptomycin and 2% FBS (HyClone), transferred to ultra-low attachment dishes (Corning 3471) having a stage-1 medium containing 100 ng/ml recombinant human/mouse/rat Activin A (R&D Systems) and 1 μM CHIR99021, and cultured at 37° C. in a 5% CO2 atmosphere for 2 days.
# In order to differentiate into the intermediate mesoderm, the cell mass (embryoid body (EB)) obtained at stage 1 was transferred to a 24-well plate coated with Synthemax II (Corning), the medium was exchanged with DMEM/F12+Glutamax containing 0.1 mM MEM NEAA, 500 U/ml penicillin/streptomycin, 0.55 mM 2-mercaptoethanol, 10% KSR, 100 ng/ml BMP7 (recombinant human BMP7, R&D Systems), and 1 μM CHIR99021, and the cells were cultured at 37° C. in a 5% CO2 atmosphere for 3 days.
# After stage 2, the medium was exchanged with DMEM/F12+Glutamax containing 0.1 mM MEM NEAA, 500 U/ml penicillin/streptomycin, 0.55 mM 2-mercaptoethanol, 10% KSR, 1 μM TTNPB (Sigma T3757), and 5 ng/ml TGFβ1 (Peprotech), followed by culturing at 37° C. in a 5% CO2 atmosphere for 5 days. The medium was exchanged with a medium having the same conditions two days after the start of culture (i.e., day 8 from the start of stage 1 (day 1)).
# After stage 3, the medium was exchanged with DMEM/F12+Glutamax containing 0.1 mM MEM NEAA, 500 U/ml penicillin/streptomycin, 0.55 mM 2-mercaptoethanol, 10% KSR, 5 ng/ml TGFβ1, and 0.5 μM DMH1 (Tocris), followed by culturing at 37° C. in a 5% CO2 atmosphere for 17 days (i.e., culturing for 28 days in total from the start of stage 1 (day 1); FIG. 3A). In this case, the medium was exchanged every 3 days with a medium having the same conditions. […] In addition, the OSR1^+SIX2^+ cell rate reached the maximum level on day 25 of culture and then it was confirmed to be maintained until day 28 of culture (FIG. 3D).
# Induction of OSR1^+SIX2^+ cells from the 4A6C3-10 iPS cell line was examined using different combinations of TGFβ signaling activators and BMP inhibitors. Specifically, induction of OSR1^+SIX2^+ cells from 4A6C3-10 was examined under conditions 1) to 10) described below. […]
substance,measurement,setting,value
TGFβ1: TGFβ signaling activator protein (Peprotech),induction of OSR1+SIX2+ cells,"Example 8, comparison of combinations of TGFβ signaling activators and BMP inhibitors at stage 4 (FIG. 4)",effective
same,OSR1-positive and SIX2-positive (OSR1+SIX2+) cell rate,"induction method 4, stage 4 medium with 5 ng/ml TGFβ1 and 0.5 μM DMH1, day 28 of culture",32.8%
